Laboratory results: EP4700025A1, “AMIDE COMPOUND, PHARMACEUTICAL COMPOSITION COMPRISING SAME, AND USE THEREOF” (Suzhou Genhouse Bio Co., Ltd., priority 2023, dated 2024)

Tests used:
HCT-116 = test: CCK8 proliferation inhibition, HCT-116; type: cell-based; conditions: Homo sapiens, 192 h, CCK8, 8 days after drug treatment
Method: (§1) The above normally growing cells were digested with a cell trypsinization solution, centrifuged, counted, and seeded into a 96-well plate at an appropriate cell density (2000 cells/well) at 100 µL/well. The next day after cell seeding, the compounds at different concentrations were added to the wells. Three replicate wells were set for each concentration point, and a corresponding DMSO negative control group was also set. CCK8 solution was added to each well 8 days after drug treatment. The plate was incubated at 37 °C for a period of time (OD450 of the vehicle group reached 1.0 or higher) before the absorbance at 450 nm was read using a microplate reader. The inhibition rates were calculated, and the EC50 values were determined by fitting using the GraphPad Prism 7.0 software. Table 2. EC50 values of compounds at cellular level

HCT-116-MTAP^-/- = test: CCK8 proliferation inhibition, HCT-116-MTAP^-/-; type: cell-based; conditions: Homo sapiens, 192 h; HCT-116-MTAP^-/- (MTAP-deficient); CCK8, 8 days after drug treatment
Method: as §1

SDMA [1] = test: SDMA Inhibition Assay in HCT-116 cells; type: cell-based; conditions: Homo sapiens, HCT-116, 96 hours
Method: (§2) The next day, the cells were treated with the compounds at different concentrations (with an initial concentration of 10 µM, 5-fold dilution, 9 concentration gradients). After 96 hours, the culture medium was pipetted out and the cells were washed 2 times with 100 µL of PBS. The cells were then fixed with 4% paraformaldehyde and incubated at room temperature for 20 min. The fixative solution was discarded, and the cells were washed with PBS. 150 µL of specialized blocking solution (containing 1% Triton-100) was added to each well for blocking at room temperature for 2 hours, and the plate was washed with PBS to remove excess blocking solution. […] The cells were incubated at 4 °C overnight. The next day, the cells were separately washed 2 times with 1× PBST. […] The cells were incubated at room temperature for 2 hours. The cells were washed 2 times with 1× PBST and 1 time with PBS. Fluorescence signals at 700 nm and 800 nm were separately detected using a Li-COR Odyssey two-color near-infrared laser imager. The inhibition rates were calculated, and the EC50 values were determined by fitting using the GraphPad Prism 7.0 software. Table 3. Inhibition of SDMA by test compounds

SDMA [2] = test: SDMA Inhibition Assay in HCT-116-MTAP^-/- cells; type: cell-based; conditions: Homo sapiens, 96 hours
Method: as §2

SDMA [3] = test: SDMA Inhibition Assay in A549 cells; type: cell-based; conditions: Homo sapiens, A549, 96 hours
Method: as §2

[4] = Pharmacokinetic assay in mice; type: in vivo, Balb/c mice; conditions: plasma, mouse
Method: Eighteen male Balb/c mice aged 6 to 8 weeks were randomly divided into 2 groups (IV group and PO group). The corresponding compounds were administered to the animals in the IV group by tail intravenous injection at 2 mg/kg, and the corresponding compounds were administered to the animals in the PO group by oral gavage at 10 mg/kg or 100 mg/kg. The animals in the IV group were allowed free access to food and water, and the animals in the PO group were fasted overnight before administration and were fed 4 h after administration. Throughout the experiment, the animals were allowed free access to water. Plasma samples were separately collected at 0.083 h (only group IV), 0.25 h, 0.5 h, 1 h, 2 h, 4 h, 8 h, and 24 h after administration. About 100 µL of blood was collected from the orbit of the animal, placed into a 1.5 mL anticoagulation centrifuge tube, and centrifuged at 8000 rpm and 4 °C for 10 min. The upper plasma sample was transferred to an EP tube. The plasma samples were stored in a refrigerator at -80 °C until sample analysis. Pharmacokinetic parameters of the drug were calculated based on the drug concentration-time data, including the peak concentration Cmax, peak time Tmax, clearance rate CL, steady state apparent volume of distribution Vss, area under drug-time curve AUC, elimination half-life t1/2, bioavailability, and the like. Data below the 80% lower limit of quantification were excluded from the calculation of pharmacokinetic parameters.

A549 = test: CCK8 proliferation inhibition, A549; type: cell-based; conditions: Homo sapiens, 192 h, CCK8, 8 days after drug treatment
Method: as §1

[5] = male, Balb/c, 10 mg/kg, PO 10mpk

EC50 (HCT-116) | EC50 (HCT-116-MTAP^-/-) | EC50 (SDMA [1]) | EC50 (SDMA [2]) | EC50 (SDMA [3]) | AUC(0-t) ([4]; male, Balb/c, 2 mg/kg, IV 2mpk) | AUC(0-t) [4, 5] | Cmax [4, 5] | EC50 (A549) | Compound | AUC(0-t) ([4]; 2 mg/kg, IV 2mpk) | AUC(0-t) ([4]; 10 mg/kg, PO 10mpk) | Cmax ([4]; 10 mg/kg, PO 10mpk)
2610 nM | 22 nM | 292 nM | 3 nM | 1.9 nM |  |  |  |  | Cn1ncc2c(N)nc3cc(F)c(C(=O)N(CCN4CCOCC4)Cc4ccc5c(c4)OC(F)(F)O5)cc3c21 [Example I-21] |  |  | 
2710 nM | 35.8 nM | 1120 nM | 8.7 nM | 6.7 nM |  |  |  |  | CN1CCN(CCN(Cc2ccc3c(c2)OC(F)(F)O3)C(=O)c2cc3c(cc2F)nc(N)c2cnn(C)c23)CC1 [Example I-31] |  |  | 
 |  |  |  |  | 6.9 µM·h | 26.5 µM·h | 5.76 µM |  | Nc1nc2cnc(C(=O)N3CCOC[C@@H]3c3ccc(C(F)(F)F)cc3)cc2c2c1COC2 [Control compound B, reference compound] |  |  | 
5760 nM | 34 nM | 628 nM | 10.3 nM | 7.6 nM |  |  |  |  | Cn1ncc2c(N)nc3ccc(C(=O)N(Cc4ccc5c(c4)OC(F)(F)O5)C4CC4)cc3c21 [Example I-15] |  |  | 
 | 3.4 nM |  | 3.5 nM | 2.1 nM |  |  |  | 10.8 nM | CC(C)N(Cc1ccc2c(c1)OC(F)(F)O2)C(=O)c1cc2c(cc1F)nc(N)c1cnn(C)c12 [Example I-13] |  |  | 
> 10000 nM | 27 nM | 381 nM | 7.4 nM | 7 nM |  |  |  |  | Cn1ncc2c(N)nc3ccc(C(=O)N4CCOCC4c4ccc5c(c4)OC(F)(F)O5)cc3c21 (stereo not drawn) [Example I-4] |  |  | 
 | 2.1 nM |  | 1.3 nM | 0.8 nM |  |  |  | 7.7 nM | COCCN(Cc1ccc2c(c1)OC(F)(F)O2)C(=O)c1cc2c(cc1F)nc(N)c1cnn(C)c12 [Example I-23] |  |  | 

Compound | EC50 (HCT-116) | EC50 (HCT-116-MTAP^-/-) | EC50 (SDMA [1]) | EC50 (SDMA [2]) | EC50 (SDMA [3]) | AUC(0-t) ([4]; male, Balb/c, 2 mg/kg, IV 2mpk) | AUC(0-t) [4, 5] | Cmax [4, 5] | EC50 (A549) | AUC(0-t) ([4]; 2 mg/kg, IV 2mpk) | AUC(0-t) ([4]; 10 mg/kg, PO 10mpk) | Cmax ([4]; 10 mg/kg, PO 10mpk)
Nc1nc2cnc(C(=O)N3CCOC[C@@H]3c3ccc4c(c3)OC(F)(F)O4)cc2c2c1COC2 [Example I-109] | 4850 nM | 19.2 nM | 938 nM | 15 nM | 2.8 nM |  |  |  |  | 13.4 µM·h | 44.1 µM·h | 14.7 µM
CC1OCc2c1c(N)nc1cc(F)c(C(=O)N(Cc3ccc4c(c3)OC(F)(F)O4)C3CC3)cc21 (racemic) [Example I-36] | > 10000 nM | 24.2 nM |  |  |  |  |  |  |  |  |  | 
Cn1cnc(CN(Cc2ccc3c(c2)OC(F)(F)O3)C(=O)c2cc3c(cc2F)nc(N)c2cnn(C)c23)n1 [Example I-41] |  | 1.6 nM |  | 0.7 nM | 1.1 nM |  |  |  | 16.8 nM |  |  | 
